Results as given in patent publication US20220226321A1, “INHIBITOR OF MNK FOR THE TREATMENT OF NEUROPATHIC PAIN” (Board of Regents, The University of Texas System, priority 2019, published 2022).
Where two headings read alike, the source gives them in different places.

System: Nav1.8-positive nociceptors
Type: in vivo, mouse
[1] = input transcriptome of whole DRG, day 10

SMILES: CC(=O)O[C@H]1C(=O)[C@@]2(C)[C@H]([C@H](OC(=O)c3ccccc3)[C@]3(O)C[C@H](OC(=O)[C@H](O)[C@@H](NC(=O)c4ccccc4)c4ccccc4)C(C)=C1C3(C)C)[C@]1(OC(C)=O)CO[C@@H]1C[C@@H]2O [paclitaxel]
- Log2FC Mxd3 (Nav1.8-TRAP after paclitaxel): 1.905
- Log2FC Ndufa4 (Nav1.8-TRAP after paclitaxel): 2.041
- Log2FC Ndufa8 (Nav1.8-TRAP after paclitaxel): 1.699
- Log2FC Ndufaf7 (Nav1.8-TRAP after paclitaxel): 2.358
- Log2FC Ndufs8 (Nav1.8-TRAP after paclitaxel): 2.837
- Log2FC Nedd9 (Nav1.8-TRAP after paclitaxel): 3.023
- Log2FC Ngfr (Nav1.8-TRAP after paclitaxel): 1.805
- Log2FC Nipsna p3b (Nav1.8-TRAP after paclitaxel): 2.057
- Log2FC Nme2 (Nav1.8-TRAP after paclitaxel): 3.66
- Log2FC Ntrk1 (Nav1.8-TRAP after paclitaxel): 2.2
- Log2FC Omg (Nav1.8-TRAP after paclitaxel): 2.194
- Log2FC PIpp1 (Nav1.8-TRAP after paclitaxel): 2.874
- Log2FC Pafah2 (Nav1.8-TRAP after paclitaxel): 2.283
- Log2FC Pcbd2 (Nav1.8-TRAP after paclitaxel): 2.687
- Log2FC Pcdhb9 (Nav1.8-TRAP after paclitaxel): 2.519
- Log2FC Pex11b (Nav1.8-TRAP after paclitaxel): 3.628
- Log2FC Pgrmc2 (Nav1.8-TRAP after paclitaxel): 1.76
- Log2FC Phpt1 (Nav1.8-TRAP after paclitaxel): 1.814
- Log2FC Pnrc2 (Nav1.8-TRAP after paclitaxel): 1.668
- Log2FC Polr1c (Nav1.8-TRAP after paclitaxel): 2.731
- Log2FC Polr2j (Nav1.8-TRAP after paclitaxel): 3.518
- Log2FC Ppdpf (Nav1.8-TRAP after paclitaxel): 2.038
- Log2FC Ppp1ca (Nav1.8-TRAP after paclitaxel): 2.094
- Log2FC Praf2 (Nav1.8-TRAP after paclitaxel): 2.335
- Log2FC Prdx5 (Nav1.8-TRAP after paclitaxel): 2.174
- Log2FC Prg4 (Nav1.8-TRAP after paclitaxel): 3.247
- Log2FC Prkrir (Nav1.8-TRAP after paclitaxel): 2.096
- Log2FC Prkx (Nav1.8-TRAP after paclitaxel): 2.201
- Log2FC Prm1 (Nav1.8-TRAP after paclitaxel): 1.732
- Log2FC Psma2 (Nav1.8-TRAP after paclitaxel): 2.07
- Log2FC Ptdss1 (Nav1.8-TRAP after paclitaxel): 1.681
- Log2FC Ptp4a3 (Nav1.8-TRAP after paclitaxel): 2.248
- Log2FC Ptprf (Nav1.8-TRAP after paclitaxel): 1.742
- Log2FC Pxdc1 (Nav1.8-TRAP after paclitaxel): 3.578
- Log2FC Rad9a (Nav1.8-TRAP after paclitaxel): 1.786
- Log2FC Rbc1 (Nav1.8-TRAP after paclitaxel): 1.841
- Log2FC Rcn3 (Nav1.8-TRAP after paclitaxel): 2.085
- Log2FC Rd54l (Nav1.8-TRAP after paclitaxel): 4.965
- Log2FC Rft1 (Nav1.8-TRAP after paclitaxel): 3.183
- Log2FC Rho (Nav1.8-TRAP after paclitaxel): 5.352
- Log2FC Rnase4 (Nav1.8-TRAP after paclitaxel): 2.356
- Log2FC Rnh1 (Nav1.8-TRAP after paclitaxel): 2.827
- Log2FC Romo1 (Nav1.8-TRAP after paclitaxel): 2.002
- Log2FC Rpl10a (Nav1.8-TRAP after paclitaxel): 2.764
- Log2FC Rpl23a (Nav1.8-TRAP after paclitaxel): 1.728
- Log2FC Rpl37 (Nav1.8-TRAP after paclitaxel): 2.314
- Log2FC Rpl39 (Nav1.8-TRAP after paclitaxel): 2.279
- Log2FC Rprm (Nav1.8-TRAP after paclitaxel): 1.703
- Log2FC Rps2 (Nav1.8-TRAP after paclitaxel): 2.442
- Log2FC Rps29 (Nav1.8-TRAP after paclitaxel): 2.994
- Log2FC Rraga (Nav1.8-TRAP after paclitaxel): 1.845
- Log2FC Rtn4rl1 (Nav1.8-TRAP after paclitaxel): 2.407
- Log2FC Rwdd1 (Nav1.8-TRAP after paclitaxel): 2.511
- Log2FC Sag (Nav1.8-TRAP after paclitaxel): 1.948
- Log2FC Scpep1 (Nav1.8-TRAP after paclitaxel): 2.923
- Log2FC Sdhb (Nav1.8-TRAP after paclitaxel): 3.236
- Log2FC Sec14I1 (Nav1.8-TRAP after paclitaxel): 2.129
- Log2FC Serp2 (Nav1.8-TRAP after paclitaxel): 2.805
- Log2FC Serpina3n (Nav1.8-TRAP after paclitaxel): 2.549
- Log2FC Serping1 (Nav1.8-TRAP after paclitaxel): 3.002
- Log2FC Shisa5 (Nav1.8-TRAP after paclitaxel): 2.137
- Log2FC Slc3a2 (Nav1.8-TRAP after paclitaxel): 2.841
- Log2FC Slc6a15 (Nav1.8-TRAP after paclitaxel): 1.979
- Log2FC Slc25a3 (Nav1.8-TRAP after paclitaxel): 2.641
- Log2FC Slc30a6 (Nav1.8-TRAP after paclitaxel): 2.809
- Log2FC Slc48a1 (Nav1.8-TRAP after paclitaxel): 1.977
- Log2FC Smdt1 (Nav1.8-TRAP after paclitaxel): 2.016
- Log2FC Smug1 (Nav1.8-TRAP after paclitaxel): 4.754
- Log2FC Snrpg (Nav1.8-TRAP after paclitaxel): 1.657
- Log2FC Soat2 (Nav1.8-TRAP after paclitaxel): 4.066
- Log2FC Sod1 (Nav1.8-TRAP after paclitaxel): 1.77
- Log2FC Sorbs1 (Nav1.8-TRAP after paclitaxel): 2.942
- Log2FC Spink10 (Nav1.8-TRAP after paclitaxel): 3.169
- Log2FC Synb (Nav1.8-TRAP after paclitaxel): 3.1
- Log2FC Syngr3 (Nav1.8-TRAP after paclitaxel): 1.701
- Log2FC Tagln3 (Nav1.8-TRAP after paclitaxel): 2.101
- Log2FC Tdrp (Nav1.8-TRAP after paclitaxel): 2.335
- Log2FC Tgm2 (Nav1.8-TRAP after paclitaxel): 2.739
- Log2FC Thoc7 (Nav1.8-TRAP after paclitaxel): 2.07
- Log2FC Timm8b (Nav1.8-TRAP after paclitaxel): 2.815
- Log2FC Timm9 (Nav1.8-TRAP after paclitaxel): 1.838
- Log2FC Tmem9b (Nav1.8-TRAP after paclitaxel): 1.818
- Log2FC Tmem14c (Nav1.8-TRAP after paclitaxel): 1.657
- Log2FC Tmem53 (Nav1.8-TRAP after paclitaxel): 2.851
- Log2FC Tmem106b (Nav1.8-TRAP after paclitaxel): 1.891
- Log2FC Tmem120b (Nav1.8-TRAP after paclitaxel): 3.033
- Log2FC Tmem126a (Nav1.8-TRAP after paclitaxel): 2.744
- Log2FC Tmem129 (Nav1.8-TRAP after paclitaxel): 2.655
- Log2FC Tnfaip8l3 (Nav1.8-TRAP after paclitaxel): 4.38
- Log2FC Tonsl (Nav1.8-TRAP after paclitaxel): 1.762
- Log2FC Tpgs2 (Nav1.8-TRAP after paclitaxel): 2.076
- Log2FC Tram1 (Nav1.8-TRAP after paclitaxel): 2.174
- Log2FC Trap1 (Nav1.8-TRAP after paclitaxel): 2.447
- Log2FC Trim11 (Nav1.8-TRAP after paclitaxel): 2.395
- Log2FC Trpv1 (Nav1.8-TRAP after paclitaxel): 1.657
- Log2FC Tspan17 (Nav1.8-TRAP after paclitaxel): 2.337
- Log2FC Tubb4b (Nav1.8-TRAP after paclitaxel): 2.111
- Log2FC Tyro3 (Nav1.8-TRAP after paclitaxel): 2.927
- Log2FC Ucp1 (Nav1.8-TRAP after paclitaxel): 3.795
- Log2FC Ufsp2 (Nav1.8-TRAP after paclitaxel): 1.927
- Log2FC Uqcrc2 (Nav1.8-TRAP after paclitaxel): 3.514
- Log2FC Uqcrq (Nav1.8-TRAP after paclitaxel): 1.825
- Log2FC Use1 (Nav1.8-TRAP after paclitaxel): 1.748
- Log2FC Usmg5 (Nav1.8-TRAP after paclitaxel): 1.798
- Log2FC Vezf1 (Nav1.8-TRAP after paclitaxel): 1.933
- Log2FC Wbp2 (Nav1.8-TRAP after paclitaxel): 1.689
- Log2FC Wdr35 (Nav1.8-TRAP after paclitaxel): 2.68
- Log2FC ll15ra (Nav1.8-TRAP after paclitaxel): 3.551
- Log2FC mt-Nd1 (Nav1.8-TRAP after paclitaxel): 1.74
- normalized TPM for the Rraga mRNA (TRAP fraction): 3.6±0.51
- increase in number of normalized reads mapping to the Rraga mRNA (TRAP-seq after paclitaxel treatment): 3.5 fold
- number of genes down regulated (TRAP-seq data set): 222
- number of genes up-regulated (TRAP-seq data set): 230
- Log2FC Med6 (gene Med6, upregulated in Nav1.8-TRAP after paclitaxel): 2.473
- Log2FC Mien1 (gene Mien1, upregulated in Nav1.8-TRAP after paclitaxel): 1.847
- Log2FC Mmd (gene Mmd, upregulated in Nav1.8-TRAP after paclitaxel): 2.026
- Log2FC Mob1a (gene Mob1a, upregulated in Nav1.8-TRAP after paclitaxel): 2.683
- Log2FC Mob3b (gene Mob3b, upregulated in Nav1.8-TRAP after paclitaxel): 2.179
- Log2FC Ythdf2 (gene Ythdf2, upregulated in Nav1.8-TRAP after paclitaxel): 1.866
- Log2FC Ywhaq (gene Ywhaq, upregulated in Nav1.8-TRAP after paclitaxel): 1.837
- Log2FC Zfp386 (gene Zfp386, upregulated in Nav1.8-TRAP after paclitaxel): 3.022
- Log2FC Zfp467 (gene Zfp467, upregulated in Nav1.8-TRAP after paclitaxel): 2.147
- Log2FC Zyx (gene Zyx, upregulated in Nav1.8-TRAP after paclitaxel): 2.08
- normalized TPM for the Rraga mRNA (input fraction): 2.04±0.17
- number of genes down-regulated [1]: 1
- number of genes up-regulated [1]: 4
- Log2FC Stx2 (mouse, in vivo): 1.896
